{"source": "patent US20070249588A1", "about": "(priority 2003, published 2007)", "target": "α7 nAChR subtype (Rattus norvegicus, UniProt Q05941)", "sequence (Q05941 23-502 limits assumed)": "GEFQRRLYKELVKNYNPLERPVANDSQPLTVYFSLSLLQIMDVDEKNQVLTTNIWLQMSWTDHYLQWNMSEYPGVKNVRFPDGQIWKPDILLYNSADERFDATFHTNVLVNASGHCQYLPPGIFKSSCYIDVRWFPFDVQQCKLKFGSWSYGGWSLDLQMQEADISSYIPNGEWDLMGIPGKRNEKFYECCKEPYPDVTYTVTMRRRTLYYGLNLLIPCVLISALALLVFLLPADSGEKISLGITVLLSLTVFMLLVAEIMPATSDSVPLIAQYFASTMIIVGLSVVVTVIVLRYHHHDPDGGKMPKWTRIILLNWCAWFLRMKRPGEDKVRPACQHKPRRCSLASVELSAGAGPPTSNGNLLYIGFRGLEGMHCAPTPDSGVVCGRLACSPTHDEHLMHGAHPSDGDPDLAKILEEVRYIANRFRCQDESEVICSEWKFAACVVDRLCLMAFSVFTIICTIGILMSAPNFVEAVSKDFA", "assay_type": "binding"}
{"substance": "^125I-α-Bungarotoxin [^125I-α-BTX]", "values": [{"measurement": "Kd", "value": 1.67, "unit": "nM"}]}
